Assay results published in patent US7541466B2, “Tetrahydroisoquinoline derivatives for treating protein trafficking diseases” (Genzyme Corporation, priority 2003, dated 2009).

Molecular target: T1, ΔF508 CFTR (Homo sapiens, UniProt P13569, DEL508-508)
T1 construct: expressed in transfected cells
Experiment: MQAE chloride transport assay in C127 cells expressing ΔF508 CFTR
Assay type: cell-based, murine
Conditions: for Emax: C127, plateau level in activity at high compound concentration, read-out: % of Maximal Response; for EC50: chloride transport activity, MQAE; for % Maximal Response @ 1.25 μM: limiting concentration 1.25 μM
Experimental: C127 cells are a murine mammary epithelial cell line obtained from ATCC (#CRL 1616, American Type Culture Collection, Manassas, Va.). C127 cells were transfected with a bovine papilloma virus-based eukaryotic expression vector containing genes for ΔF508 CFTR and neomycin resistance whose expression was driven by a metallothionein promoter. Clonal cell populations resistant to G418 and positive for staining with anti-CFTR antibody were identified.
C127 cells expressing ΔF508 CFTR were grown in microtiter plates in DMEM (Dulbecco's Modified Eagle Medium, Hyclone, Logan, Utah) supplemented with fetal bovine serum, antibiotics, and glutamine in a 37° C., 5% CO2 atmosphere. Once confluent, the cells were loaded overnight with the disclosed compounds and a fluorescent dye sensitive to chloride ion concentration, N-(ethoxycarbonylmethyl)-6-methoxy quinolinium bromide (MQAE) (Verkman, Am. J. Physiol. 259 C375-C388 (1990)).
The following day, cells were washed with chloride-containing buffer to remove extracellular MQAE and to quench intracellular MQAE fluorescence. Chloride buffer was flicked out and replaced with nitrate buffer with added forskolin and IBMX (isobutylmethylxanthine) to stimulate CFTR activity. […] Buffers were adjusted to pH 7.4 and contained: 10 mM HEPES (N-2-Hydroxyethylpiperazine-N′-2-ethanesulfonic acid), 2.4 mM K2HPO4, 0.6 mM KH2PO4, 1.0 mM CaSO4, 1.0 mM MgSO4, 150 mM NaCl or NaNO3, and 25 mM glucose.
The increase in MQAE fluorescence as a function of time was followed using 360 nm excitation and 460 nm emission wavelengths. Fluorescence increased as chloride flowed out of cells through CFTR and the rate of increase in fluorescence over the first five minutes was taken as a measure of chloride transport activity.
Cells were treated with mixtures of up to 100 compounds per well for ca. 18 hours before the assay for chloride transport activity. […] Dose-response curves were generated and compounds were ranked based on their EC50 values and maximal responses (the plateau level in activity at high compound concentration, as a percentage of the low temperature response).

[1] = as a percentage of the low temperature response
[2] = percentage of low temperature response, C127 ΔF508 CFTR cells

T1 sequence (P13569 with tags, fused parts or gaps DEL508-508): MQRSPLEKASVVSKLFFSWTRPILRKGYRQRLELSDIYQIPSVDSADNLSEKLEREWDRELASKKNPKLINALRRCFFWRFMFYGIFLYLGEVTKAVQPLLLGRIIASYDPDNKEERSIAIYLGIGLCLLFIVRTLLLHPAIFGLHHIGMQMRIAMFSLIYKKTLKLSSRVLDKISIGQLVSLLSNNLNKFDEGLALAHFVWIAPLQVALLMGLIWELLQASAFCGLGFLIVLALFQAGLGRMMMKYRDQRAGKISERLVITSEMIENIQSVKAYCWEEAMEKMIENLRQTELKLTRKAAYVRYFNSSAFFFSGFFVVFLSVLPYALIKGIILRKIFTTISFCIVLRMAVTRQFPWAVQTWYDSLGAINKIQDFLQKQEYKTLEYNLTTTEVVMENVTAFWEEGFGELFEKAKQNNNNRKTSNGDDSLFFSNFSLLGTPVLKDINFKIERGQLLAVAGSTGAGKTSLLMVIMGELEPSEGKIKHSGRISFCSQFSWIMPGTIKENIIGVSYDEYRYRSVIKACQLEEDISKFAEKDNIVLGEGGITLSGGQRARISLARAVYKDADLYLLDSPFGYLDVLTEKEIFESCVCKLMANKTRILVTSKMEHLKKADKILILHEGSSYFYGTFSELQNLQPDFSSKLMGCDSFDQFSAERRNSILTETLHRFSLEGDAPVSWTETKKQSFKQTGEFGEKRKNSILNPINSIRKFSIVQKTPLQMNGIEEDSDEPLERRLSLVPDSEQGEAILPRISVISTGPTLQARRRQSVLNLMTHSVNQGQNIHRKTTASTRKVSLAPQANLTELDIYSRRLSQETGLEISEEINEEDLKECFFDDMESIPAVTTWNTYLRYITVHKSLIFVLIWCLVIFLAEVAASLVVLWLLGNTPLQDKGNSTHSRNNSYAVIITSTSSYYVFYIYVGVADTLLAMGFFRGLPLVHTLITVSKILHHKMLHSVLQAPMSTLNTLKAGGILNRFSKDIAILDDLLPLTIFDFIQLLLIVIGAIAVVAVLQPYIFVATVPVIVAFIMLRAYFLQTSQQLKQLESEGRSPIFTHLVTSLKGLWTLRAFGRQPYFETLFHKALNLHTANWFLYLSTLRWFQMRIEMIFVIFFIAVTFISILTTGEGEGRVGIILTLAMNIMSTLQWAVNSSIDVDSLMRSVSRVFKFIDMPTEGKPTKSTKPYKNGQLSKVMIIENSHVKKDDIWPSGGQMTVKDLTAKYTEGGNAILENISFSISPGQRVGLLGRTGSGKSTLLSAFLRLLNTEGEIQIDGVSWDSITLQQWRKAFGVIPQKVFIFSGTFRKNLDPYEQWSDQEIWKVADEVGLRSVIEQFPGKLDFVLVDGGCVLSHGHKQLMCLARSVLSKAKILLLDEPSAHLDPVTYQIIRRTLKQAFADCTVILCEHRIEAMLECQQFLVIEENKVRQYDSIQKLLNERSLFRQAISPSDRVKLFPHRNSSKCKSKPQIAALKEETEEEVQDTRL

Compound	Emax [1] [%]	EC50 (C127 ΔF508 CFTR cells) [nM]	further results
O=C(Nc1ccc(Cl)cc1)C1Cc2ccccc2CN1C(=O)c1cccc(Oc2ccccc2)c1 (racemic) [Compound 1]	79	–	–
Cc1ccc(Oc2cccc(C(=O)N3Cc4ccccc4CC3C(=O)Nc3ccc(Cl)cc3)c2)cc1 (racemic) [Compound 7]	77	250	–
CC(C)(C)c1ccc(Oc2cccc(C(=O)N3Cc4ccccc4CC3C(=O)Nc3ccc(Cl)cc3)c2)cc1 (racemic) [Compound 8]	95	280	–
COc1ccccc1Oc1cccc(C(=O)N2Cc3ccccc3CC2C(=O)Nc2ccc(Cl)cc2)c1 (racemic) [Compound 11, (±)-2-[3-(2-Methoxyphenoxy)benzoyl]-1,2,3,4-tetrahydroisoquinoline-3-carboxylic acid(4-chlorophenyl)amide]	52	260	–
COc1ccc(C(=O)N2Cc3ccccc3CC2C(=O)Nc2ccc(Cl)cc2)cc1Oc1ccccc1 (racemic) [Compound 17]	65	67	–
O=C(Nc1ccc(Cl)cc1)C1Cc2ccc(O)cc2CN1C(=O)c1cccc(Oc2ccccc2)c1 (racemic) [Compound 20]	28	1240	–
CCCCCc1ccc(NC(=O)C2Cc3c(C)cccc3CN2C(=O)c2cccc(Oc3ccccc3)c2)cc1 (racemic) [Compound 21]	28	170	–
O=C(Nc1ccc(Cl)cc1)C1Cc2ccccc2CN1C(=O)c1ccc2ccccc2c1 (racemic) [Compound 22, (±)-2-(Naphthalene-2-carbonyl)-1,2,3,4-tetrahydroisoquinoline-3-carboxylic acid(4-chlorophenyl)amide]	–	–	% Maximal Response @ 1.25 μM [2]: 36%
Cc1ccc(NC(=O)C2Cc3ccccc3CN2C(=O)c2cccc(Oc3ccccc3)c2)cc1 (racemic) [Compound 67]	70	270	Percent of low-temperature response at 1.25 µM (C127, limiting concentration 1.25 μM, percentage of low temperature response, C127 ΔF508 CFTR cells, read-out: % Maximal Response @ 1.25 μM): 85%
O=C(NCCc1ccc(Br)cc1)C1Cc2ccccc2CN1C(=O)c1cccc(Oc2ccccc2)c1 (racemic) [Compound 73, (±)-2-(3-Phenoxybenzoyl)-1,2,3,4-tetrahydroisoquinoline-3-carboxylic acid[2-(4-bromophenyl)-ethyl]amide]	–	–	% Maximal Response @ 1.25 μM [2]: 34%
CCCc1ccc(NC(=O)C2Cc3ccccc3CN2C(=O)c2cccc(Oc3ccccc3)c2)cc1 (racemic) [Compound 75]	82	270	–
O=C(Nc1ccc(C2CCCCC2)cc1)C1Cc2ccccc2CN1C(=O)c1cccc(Oc2ccccc2)c1 (racemic) [Compound 76]	36	400	–
CCC(C)c1ccc(NC(=O)C2Cc3ccccc3CN2C(=O)c2cccc(Oc3ccccc3)c2)cc1 (racemic) [Compound 77]	30	350	–
CC(C)c1ccc(NC(=O)C2Cc3ccccc3CN2C(=O)c2cccc(Oc3ccccc3)c2)cc1 (racemic) [Compound 78]	40	250	–
CCc1ccc(NC(=O)C2Cc3ccccc3CN2C(=O)c2cccc(Oc3ccccc3)c2)cc1 (racemic) [Compound 79]	73	230	–
CCOc1cccc(NC(=O)C2Cc3ccccc3CN2C(=O)c2cccc(Oc3ccccc3)c2)c1 (racemic) [Compound 83]	79	280	–
CC(=O)N(C)c1ccc(NC(=O)C2Cc3ccccc3CN2C(=O)c2cccc(Oc3ccccc3)c2)cc1 (racemic) [Compound 85]	74	96	–
CCCCCc1ccc(NC(=O)C2Cc3ccccc3CN2C(=O)c2cccc(Oc3ccccc3)c2)cc1 (racemic) [Compound 87]	74	–	–
CCCCCCN(C(C)=O)c1ccc(NC(=O)C2Cc3ccccc3CN2C(=O)c2cccc(Oc3ccccc3)c2)cc1 (racemic) [Compound 90, (±)-2-(3-Phenoxybenzoyl)-1,2,3,4-tetrahydroisoquinoline-3-carboxylic acid[4-(acetylhexylamino)phenyl]amide]	66	59	–
O=C(Nc1ccc(I)cc1)C1Cc2ccccc2CN1C(=O)c1cccc(Oc2ccccc2)c1 (racemic) [Compound 93]	60	–	–
CCCC(=O)N(C)c1ccc(NC(=O)C2Cc3ccccc3CN2C(=O)c2cccc(Oc3ccccc3)c2)cc1 (racemic) [Compound 95, (±)-2-(3-Phenoxybenzoyl)-1,2,3,4-tetrahydroisoquinoline-3-carboxylic acid[4-(butyrylmethylamino)-phenyl]amide]	80	150	–
O=C(Nc1cccnc1)C1Cc2ccccc2CN1C(=O)c1cccc(Oc2ccccc2)c1 (racemic) [Compound 98]	55	–	–

Compound	Emax [1] [%]	EC50 (C127 ΔF508 CFTR cells) [nM]	further results
COc1ccc(NC(=O)C2Cc3ccccc3CN2C(=O)c2cccc(Oc3ccccc3)c2)cn1 (racemic) [Compound 99]	70	270	–
O=C(Nc1nccs1)C1Cc2ccccc2CN1C(=O)c1cccc(Oc2ccccc2)c1 (racemic) [Compound 100]	59	430	–
CCCCN(C(C)=O)c1ccc(NC(=O)C2Cc3ccccc3CN2C(=O)c2cccc(Oc3ccccc3)c2)cc1 (racemic) [Compound 102]	70	–	–
COc1ccc(C(=O)N2Cc3ccccc3CC2C(=O)Nc2ccc(Cl)nc2)cc1Oc1ccccc1 (racemic) [Compound 108]	60	100	–
CCCCCc1ccc(NC(=O)C2Cc3ccccc3CN2C(=O)c2cccc(OCc3ccccc3)c2)cc1 (racemic) [Compound 113]	91	69	–
CC1c2ccccc2CN(C(=O)c2cccc(Oc3ccccc3)c2)C1C(=O)Nc1ccc(Cl)cc1 (single isomer, unassigned) [Compound 18]	59	87	–
CC1c2ccccc2CN(C(=O)c2cccc(Oc3ccccc3)c2)C1C(=O)Nc1ccc(Cl)cc1 (single isomer, unassigned) [Compound 19]	–	150	% of Maximal Response (plateau level in activity at high compound concentration, as a percentage of the low temperature response): 69%
O=C(Nc1ccc(Cl)cc1)C1Cc2ccccc2CN1C(=O)c1cccc(OCc2ccccc2)c1 (single isomer, unassigned; (+)) [Compound 14, (+)-2-(3-Benzyloxybenzoyl)-1,2,3,4-tetrahydroisoquinoline-3-carboxylic acid(4-chlorophenyl)amide]	85	220	–
CC(=O)N(C)c1ccc(NC(=O)[C@@H]2Cc3ccccc3CN2C(=O)c2cccc(Oc3ccccc3)c2)cc1 [Compound 86]	54	66	–
CCCCCc1ccc(NC(=O)[C@@H]2Cc3ccccc3CN2C(=O)c2cccc(Oc3ccccc3)c2)cc1 [Compound 88]	76	–	–
CCCCCCN(C(C)=O)c1ccc(NC(=O)[C@@H]2Cc3ccccc3CN2C(=O)c2cccc(Oc3ccccc3)c2)cc1 [Compound 91]	70	29	–
CCCCN(C(C)=O)c1ccc(NC(=O)[C@@H]2Cc3ccccc3CN2C(=O)c2cccc(Oc3ccccc3)c2)cc1 [Compound 103]	76	–	–
CCCCCc1ccc(NC(=O)[C@@H]2Cc3ccccc3CN2C(=O)c2cccc(Oc3ccccc3)c2)cn1 [Compound 107, (S)-2-(3-Phenoxybenzoyl)-1,2,3,4-tetrahydroisoquinoline-3-carboxylic acid(6-pentylpyridin-3-yl)amide]	54	–	–
O=C(Nc1ccc(F)cc1)[C@@H]1Cc2ccccc2CN1C(=O)c1cc(OC2CCCCC2)ccn1 [Compound 109]	87	96	–
COc1ccc(NC(=O)[C@@H]2Cc3ccccc3CN2C(=O)c2cc(OC3CCCCC3)ccn2)cn1 [Compound 110]	64	400	–
CCOc1cccc(NC(=O)[C@@H]2Cc3ccccc3CN2C(=O)c2cc(OC3CCCCC3)ccn2)c1 [Compound 111]	73	150	–
CCCCCc1ccc(NC(=O)[C@@H]2Cc3ccccc3CN2C(=O)c2cccc(Oc3ccc(OC)cc3)c2)cc1 [Compound 112]	71	39	–
CCCCCc1ccc(NC(=O)[C@@H]2Cc3ccccc3CN2C(=O)c2cccc(OCc3ccccc3)c2)cc1 [Compound 114]	72	59	–
CCCCCc1ccc(NC(=O)[C@@H]2Cc3ccccc3CN2C(=O)c2ccc(OC)c(Oc3ccccc3)c2)cc1 [Compound 115]	74	–	–
CCCCCc1ccc(NC(=O)[C@@H]2Cc3ccccc3CN2C(=O)c2ccc(OC)c(OCc3ccccc3)c2)cc1 [Compound 116]	88	18	–
CCCCCc1ccc(NC(=O)[C@@H]2Cc3ccccc3CN2C(=O)c2cc(Oc3ccccc3)ccn2)cc1 [Compound 118]	79	–	–
